Source: US7964628B2, “Fibrinogen receptor antagonists and their use” (Piramal Life Sciences Limited, priority 2003, dated 2011)
Values belong to the compound of their own block, whether it stands above or below them.

How the values were obtained:
[1] = test system: ADP-induced human platelet aggregation; experiment: Inhibition of platelet aggregation in human PRP (ADP-induced); assay type: cell-based; details: 0.05 h, 3 min at 37° C., ADP 5-15 μM final concentration
Experimental: Human blood (150 ml) was collected from the ante-cubital vein of normal healthy volunteers (who were not on any medication for the past two weeks), into a siliconized glass bottle containing 25 ml of acid-citrate-dextrose (ACD) solution and 10 units of hirudin. The blood was immediately centrifuged at 200×g for 20 min at room temperature. Platelet-rich plasma (PRP) was separated and the platelet count read using a Beckman Coulter A^cT diff Counter. The tubes were centrifuged again at 2000×g for 10 min at room temperature, to get platelet-free plasma (PFP). The platelet count of PRP was adjusted to 3×10^8 platelets/ml by appropriate dilution with PFP. All in vitro experiments were conducted using PRP with adjusted number of platelets.
Inhibition of Platelet Aggregation in Human PRP (Born, G. V. R.; Cross, M. J., J. Physiol, 1963, 168, 175)
PRP was incubated with different concentrations of the test compound for 3 min at 37° C. Platelet aggregation was then induced by the addition of ADP (5-15 μM final concentration). Percent inhibition of platelet aggregation was then calculated by comparing test aggregation values with control values (Table 1).

[2] = test system: ADP-induced guinea pig platelet aggregation; experiment: Guinea pig ex vivo studies: ADP-induced guinea pig platelet aggregation after oral dosing; details: ex vivo in Guinea pigs, 3.1 mg/kg, p.o; for Last time point * (time in hours): time point after which the activity fell below 30%
Experimental: Guinea Pig Ex vivo Studies:
Guinea pigs of either sex weighing between 500-800 g were orally fed the test compound. Blood was collected, from the carotid artery into ACD solution, at different time-points ranging from 1 to 24 h. PRP was separated and the platelet count adjusted to 3×10^8 platelets/ml using PFP. The effect of the test compound on ADP-induced guinea pig platelet aggregation was studied (Table 4).

[3] = test system: ADP-induced human platelet aggregation; experiment: Mouse ex vivo studies: plasma of orally dosed mice tested on ADP-induced human platelet aggregation; details: 1 mg/kg, p.o; for Last time point * (time in hours): time point after which the activity fell below 30%; for Activity (%) at last time point / Activity (%) at peak: ex vivo in mice
Experimental: Mouse ex vivo Studies: (Weller, T., Alig, L., et al J. Med. Chem., 1996, 39, 3139-3147)
Mice of either sex weighing between 25-35 g were orally fed the test compound. Blood was collected, from the abdominal aorta into ACD solution, at different time-points ranging from 15 min to 6 h. The blood samples were centrifuged at 2000×g for 10 min to get PFP. This plasma was separated and used as test sample to study its effect on ADP-induced human platelet aggregation (Table 3).

SMILES: CCOC(=O)COc1ccc(C(=O)CN2Cc3cc(C(=N)N)ccc3C2=O)cc1 [Example 3, (4-{2-[5-Carbamimidoyl-1-oxo-1,3-dihydro-isoindol-2-yl]-acetyl}-phenoxy)-acetic acid ethyl ester]
melting point: 185 to 187 °C
IC50 [1]: 93 nM

SMILES: CCOC(=O)COc1ccc(C(=O)CN2Cc3cc(C(=N)N)ccc3C2=O)cc1OCC(=O)OCC [Example 20, (4-{2-[5-Carbamimidoyl-1-oxo-1,3-dihydro-isoindol-2-yl]-acetyl}-2-ethoxycarbonylmethoxy-phenoxy)-acetic acid ethyl ester]
IC50 [1]: 50 nM

melting point: 181 to 182 °C
SMILES: CCOC(=O)COc1ccc(C(CN2Cc3cc(C(=N)NO)ccc3C2=O)=NO)cc1OCC(=O)OCC [Example 23, (2-Ethoxycarbonylmethoxy-4-{2-[5-(N-hydroxycarbamimidoyl)-1-oxo-1,3-dihydro-isoindol-2-yl]-1-hydroxyimino-ethyl}-phenoxy)-acetic acid ethyl ester]
Activity (%) at last time point [2]: 48%
Activity (%) at peak [2]: 100%
Peak activity (time in hours) [2]: 7 h
Last time point * (time in hours) [2]: 13 h
Peak activity (time in hours) [3]: 1 h
Last time point * (time in hours) [3]: 4 h
Activity (%) at last time point [3]: 35%
Activity (%) at peak [3]: 100%

SMILES: CC(C)COC(=O)COc1ccc(C(=O)CN2Cc3cc(C(=N)N)ccc3C2=O)cc1OCC(=O)OCC(C)C [Example 24, (4-{2-[5-Carbamimidoyl-1-oxo-1,3-dihydro-isoindol-2-yl]-acetyl}-2-isobutoxycarbonylmethoxy-phenoxy)acetic acid isobutyl ester]
IC50 [1]: 6 nM

melting point: 197 to 198 °C
SMILES: CCOC(=O)COc1ccc(C(=O)CN2Cc3cc(C(=N)NO)ccc3C2=O)c(O)c1 [Example 42, (3-Hydroxy-4-{2-[5-(N-hydroxycarbamimidoyl)-1-oxo-1,3-dihydro-isoindol-2-yl]-acetyl}-phenoxy)-acetic acid ethyl ester]
Activity (%) at last time point [2]: 78%
Activity (%) at peak [2]: 100%
Peak activity (time in hours) [2]: 7 h
Last time point * (time in hours) [2]: 15 h
Peak activity (time in hours) [3]: 0.75 h
Last time point * (time in hours) [3]: 6 h
Activity (%) at last time point [3]: 62%
Activity (%) at peak [3]: 100%

melting point: 182 to 183 °C
SMILES: CCOC(=O)COc1ccc(C(=O)CN2Cc3cc(C(=N)NO)ccc3C2=O)c(O)c1SCC [Example 49, (2-Ethylsulfanyl-3-hydroxy-4-{2-[5-(N-hydroxycarbamimidoyl)-1-oxo-1,3-dihydro-isoindol-2-yl]-acetyl}-phenoxy)-acetic acid ethyl ester]
Peak activity (time in hours) [3]: 0.75 h
Last time point * (time in hours) [3]: 3 h
Activity (%) at last time point [3]: 38%
Activity (%) at peak [3]: 65%

melting point: 211 to 212 °C
SMILES: CCCc1c(OCC(=O)OCC)ccc(C(=O)CN2Cc3cc(C(=N)NO)ccc3C2=O)c1O [Example 58, (3-Hydroxy-4-{2-[5-(N-hydroxycarbamimidoyl)-1-oxo-1,3-dihydro-isoindol-2-yl]-acetyl}-2-propyl-phenoxy)-acetic acid ethyl ester]

melting point: 199 to 200 °C
SMILES: CCCc1c(OCC(=O)OCc2ccccc2)ccc(C(=O)CN2Cc3cc(C(=N)NO)ccc3C2=O)c1O [Example 59, (3-Hydroxy-4-{2-[5-(N-hydroxycarbamimidoyl)-1-oxo-1,3-dihydro-isoindol-2-yl]-acetyl}-2-propyl-phenoxy)-acetic acid benzyl ester]

melting point: 158 to 159 °C
SMILES: CCOC(=O)COc1ccc(O)c(C(=O)CN2Cc3cc(C(=N)NO)ccc3C2=O)c1 [Example 61, (4-Hydroxy-3-{2-[5-(N-hydroxycarbamimidoyl)-1-oxo-1,3-dihydro-isoindol-2-yl]-acetyl}-phenoxy)-acetic acid ethyl ester]

melting point: 209 to 210 °C
SMILES: CCOC(=O)COc1cc(O)c(C(=O)CN2Cc3cc(C(=N)NO)ccc3C2=O)c(OC)c1 [Example 62, (3-Hydroxy-4-{2-[5-(N-hydroxycarbamimidoyl)-1-oxo-1,3-dihydro-isoindol-2-yl]-acetyl}-5-methoxy-phenoxy)-acetic acid ethyl ester]

melting point: 229 to 230 °C
SMILES: CCOC(=O)COc1cc(O)c(C(=O)CN2Cc3cc(C(=N)NO)ccc3C2=O)c(O)c1 [Example 63, (3,5-Dihydroxy-4-{2-[5-(N-hydroxycarbamimidoyl)-1-oxo-1,3-dihydro-isoindol-2-yl]-acetyl}-phenoxy)-acetic acid ethyl ester]

melting point: 153 to 155 °C
SMILES: CCOC(=O)COc1ccc(C(=O)CN2Cc3cc(C(=N)NO)ccc3C2=O)c(O)c1OCC(=O)OCC [Example 64, (2-Ethoxycarbonylmethoxy-3-hydroxy-4-{2-[5-(N-hydroxycarbamimidoyl)-1-oxo-1,3-dihydro-isoindol-2-yl]-acetyl}-phenoxy)-acetic acid ethyl ester]

melting point: 204 to 206 °C
SMILES: CCOC(=O)COC1CCN(C(=O)CN2Cc3cc(C(=N)NO)ccc3C2=O)CC1 [Example 68, (1-{2-[5-(N-Hydroxycarbamimidoyl)-1-oxo-1,3-dihydro-isoindol-2-yl]-acetyl}-piperidin-4-yloxy)-acetic acid ethyl ester]

melting point: 151 to 152 °C
SMILES: CCOC(=O)COC1CCN(C(=O)CCN2Cc3cc(C(=N)NO)ccc3C2=O)CC1 [Example 69, (1-{3-[5-(N-Hydroxycarbamimidoyl)-1-oxo-1,3-dihydro-isoindol-2-yl]-propionyl}-piperidin-4-yloxy)-acetic acid ethyl ester]

melting point: 192 to 194 °C
SMILES: CCOC(=O)COc1ccc(C(=O)CN2Cc3cc(C(=N)NO)ccc3C2=O)c(OCC)c1 [Example 75, (3-Ethoxy-4-{2-[5-(N-hydroxycarbamimidoyl)-1-oxo-1,3-dihydro-isoindol-2-yl]-acetyl}-phenoxy)-acetic acid ethyl ester]

melting point: 202 to 203 °C
SMILES: CCOC(=O)COc1ccc(C(=O)CN2Cc3cc(C(=N)N)ccc3C2=O)c(OCC)c1 [Example 76, (4-{2-[5-carbamimidoyl-1-oxo-1,3-dihydro-isoindol-2-yl]-acetyl}-3-ethoxy-phenoxy)-acetic acid ethyl ester]

melting point: 223 to 225 °C
SMILES: CCOC(=O)COc1ccc(C(=O)CN2Cc3cc(-c4nc(=O)o[nH]4)ccc3C2=O)c(O)c1 [Example 78, (3-Hydroxy-4-{2-[1-oxo-5-(5-oxo-2,5-dihydro-[1,2,4]oxadiazol-3-yl)-1,3-dihydro-isoindol-2-yl]-acetyl}-phenoxy)-acetic acid ethyl ester]

SMILES: CCOC(=O)COc1ccc(C(=O)CN2Cc3cc(-c4noc(C)n4)ccc3C2=O)c(OC(C)=O)c1 [Example 80, (3-Acetoxy-4-{2-[5-(5-methyl-[1,2,4]oxadiazol-3-yl)-1-oxo-1,3-dihydro-isoindol-2-yl]acetyl}-phenoxy)-acetic acid ethyl ester]
melting point: 162 to 164 °C
